Laboratory results published in patent publication US7652057B2, “Pyrazolones as 11b-HSD1 inhibitors for diabetes” (Hoffman-La Roche Inc., priority 2005, dated 2010).

Target: T1, human 11beta-HSD1 (Homo sapiens, UniProt P28845)
T1 construct: made in house; host or cells: HEK293 cells (ATCC CRL-1573), transient transfection with a pcDNA3 construct; microsomal fraction
Assay: Microsome assay (cortisone to cortisol conversion, ELISA)
Type: biochemical
Details: microsomes from HEK293 cells transiently expressing human 11beta-HSD1; Cortisone 50-200 nM, NADPH 1 mM, 60 min at 37° C.; read-out: h 11-beta-HSD 1 IC50
Method: The cDNA encoding the human 11beta-HSD1 protein was cloned into the expression vector pcDNA3 ([…]). This construct (for details see Alex Odermatt et al.; J Biol Chem., 1999, Vol. 274, Issue 40, 28762-28770) was used to transiently express the protein in HEK293 cells (ATCC number: CRL-1573, described in Graham, F. L., Smiley, J., Russell, W. C., Nairn, R.; (1977)) using lipofectamine. 48 h after transfection cells were washed twice with ice-cold PBS (Phosphate buffered Saline). To 1 volume of cell suspension in PBS 2 volumes of ice-cold lysis buffer (50 mM Tris; pH7.5; 1 mM EDTA; 100 mM NaCl) were added. The cells were lysed by Potter-homogenization (20 strokes). The resulting homogenate was sonicated wit a tip sonicator (10% output; 2×30 sec.) and cleared by a low speed centrifugation (10 min×9000 g; 4° C.). The microsomal fraction was collected by a high speed centrifugation (60 min×110'000 g). […]
Microsomes isolated from HEK293 cells transiently expressing human 11beta-HSD1 (for details see above) were incubated in assay buffer (100 mM NaCl; 1 mM EDTA; 1 mM EGTA; 1 mM MgCl; 250 mM Sucrose; 20 mM Tris pH 7.4; Cortisone 50-200 nM and NADPH 1 mM) together with different concentrations of test substances. […] The amount of Cortisol produced in this assay was determined using a commercially available, ELISA-based Cortisol-detection kit (Distributed by Assay Design, Inc.). […]

T1 sequence (P28845 whole entry): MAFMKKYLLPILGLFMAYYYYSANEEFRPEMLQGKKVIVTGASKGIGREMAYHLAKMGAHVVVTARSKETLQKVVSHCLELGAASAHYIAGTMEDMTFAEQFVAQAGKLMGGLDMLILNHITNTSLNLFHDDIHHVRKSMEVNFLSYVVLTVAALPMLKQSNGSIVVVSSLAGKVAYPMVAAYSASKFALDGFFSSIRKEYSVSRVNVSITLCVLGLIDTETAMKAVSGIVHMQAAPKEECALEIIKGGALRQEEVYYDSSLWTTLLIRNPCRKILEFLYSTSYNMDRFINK

`Cn1c(C2CC2)c(C2CC2)c(=O)n1-c1ccccc1` [Example 1, 4,5-Dicyclopropyl-1-methyl-2-phenyl-1,2-dihydro-pyrazol-3-one] gave an IC50 of 0.021 µM.

In the case of `Cc1c(C23CC4CC(CC(C4)C2)C3)c(=O)n2n1CCCCC2` [Example 51, 2-adamantan-1-yl-3-methyl-6,7,8,9-tetrahydro-5H-pyrazolo[1,2-a][1,2]diazepin-1-one], the IC50 is reported as 0.133 µM.
